Pest or weed control and inhibition data for four molecules are collected here from patent US12501900B2, “Heterocyclyl pyridazine as fungicidal compounds” (Bayer Aktiengesellschaft, priority 2018, dated 2025).

Assay [1] deals with Sphaerotheca fuliginea. The assay can be described thus: In vivo preventive test on Sphaerotheca fuliginea (powdery mildew on cucurbits). The following applies: Podosphaera fuliginea, 192 h; 500 ppm of active ingredient; preventive spray on gherkin; evaluated 8 days after inoculation; read-out: efficacy.
Assay [2] deals with Septoria tritici. As to the kind of experiment: In vivo preventive test on Septoria tritici (leaf spot on wheat). The note with it: Zymoseptoria tritici, in Triticum aestivum; 500 ppm of active ingredient; preventive spray on wheat; evaluated 19 days after inoculation; read-out: efficacy. The method, then: Example: In Vivo Preventive Test on Septoria tritici (Leaf Spot on Wheat)
• Solvent: 5% by volume of Dimethyl sulfoxide • 10% by volume of Acetone • Emulsifier: 1 μl of Tween® 80 per mg of active ingredient
The active ingredients were made soluble and homogenized in a mixture of Dimethyl sulfoxide/Acetone//Tween®80 and then diluted in water to the desired concentration.
The young plants of wheat were treated by spraying the active ingredient prepared as described above. Control plants were treated only with an aqueous solution of Acetone/Dimethyl sulfoxide/Tween®80.
After 24 hours, the plants were contaminated by spraying the leaves with an aqueous suspension of Septoria tritici spores. The contaminated wheat plants were incubated for 72 hours at 17° C. and at 100% relative humidity and then for 15 days at 20° C. and at 90% relative humidity.
The test was evaluated 19 days after the inoculation. 0% means an efficacy which corresponds to that of the control plants while an efficacy of 100% means that no disease was observed.

Assay [3] concerns Colletotrichum lindemuthianum. The assay can be described thus: In vivo preventive test on Colletotrichum lindemuthianum (leaf spot on bean). The following applies: 168 h, 500 ppm of active ingredient, preventive spray on bean, evaluated 7 days after inoculation, read-out: efficacy.
Assay [4] deals with Pyrenophora teres. The assay can be described thus: In vivo preventive test on Pyrenophora teres (net blotch on barley). The following applies: 240 h, 500 ppm of active ingredient, preventive spray on barley, evaluated 10 days after inoculation, read-out: efficacy.
The test system of assay [5] is Septoria tritici. As to the kind of experiment: Septoria tritici in vitro cell test. The following applies: Zymoseptoria tritici, 168 h; 20 ppm of active ingredient; liquid culture, 7 days incubation; read-out: efficacy (inhibition of fungal growth). In kind it is cell-based. As for the experimental part: Example: Septoria tritici In Vitro Cell Test • Solvent: DMSO • Culture medium: 14.6 g anhydrous D-glucose (VWR), 7.1 g Bacteriological Peptone (Oxoid), • 1.4 g granulated Yeast Extract (Merck), QSP 1 liter • Inoculum: spore suspension Fungicides were solubilized in DMSO and the solution used to prepare the required range of concentrations. The final concentration of DMSO used in the assay was ≤1%. A spore suspension of Septoria tritici was prepared and diluted to the desired spore density. Fungicides were evaluated for their ability to inhibit spore germination and mycelium growth in liquid culture assay. The compounds were added in the desired concentration to the culture medium with spores. After 7 days incubation, fungi-toxicity of compounds was determined by spectrometric measurement of mycelium growth. Inhibition of fungal growth was determined by comparing the absorbance values in wells containing the fungicides with the absorbance in control wells without fungicides.

Assay [6] relates to Botrytis cinerea. The assay can be described thus: In vivo preventive test on Botrytis cinerea (grey mould). The note with it: 500 ppm of active ingredient, preventive spray on gherkin or cabbage, evaluated 4 to 5 days after inoculation, read-out: efficacy.
Assay [7] deals with Colletotrichum lindemuthianum. As to the kind of experiment: Colletotrichum lindemuthianum in vitro cell test. In kind it is cell-based. The note with it: 144 h, 20 ppm of active ingredient, liquid culture, 6 days incubation, read-out: efficacy (inhibition of fungal growth).

For the molecule `COc1cccc(Oc2nnc(Cl)cc2C2=NOCC(Cc3ccc(C)cc3C)N2)c1F` (racemic) [I-005, rac-3-[6-chloro-3-(2-fluoro-3-methoxy-phenoxy)pyridazin-4-yl]-5-[(2,4-dimethylphenyl)methyl]-5,6-dihydro-4H-1,2,4-oxadiazine], the pest or weed control at 500 ppm in assay [1], in assay [2], in assay [3], in assay [4] and in assay [6] was 90 to 100% throughout. Besides, the inhibition at 20 ppm was in the range of 70 to 79% in assay [5] and 90 to 100% in assay [7].
Turning to `C=C(OCC)c1cc(C2=NOCC(Cc3ccc(C)cc3C)N2)c(Oc2cccc(C(F)(F)F)c2)nn1` (racemic) [I-009, rac-5-[(2,4-dimethylphenyl)methyl]-3-[6-(1-ethoxyvinyl)-3-[3-(trifluoro-methyl)phenoxy]pyridazin-4-yl]-5,6-dihydro-4H-1,2,4-oxadiazine], the pest or weed control at 500 ppm in assay [1], in assay [2], in assay [3], in assay [4] and in assay [6] was 90 to 100% each time. For the same molecule, the inhibition at 20 ppm in assay [5] and in assay [7] was 90 to 100% throughout.
`FC(F)(F)c1cccc(Oc2nnc(Cl)cc2C2=NOCC(Cc3ccc(Br)cc3Cl)N2)c1` (racemic) [I-016, rac-5-[(4-bromo-2-chloro-phenyl)methyl]-3-[6-chloro-3-[3-(trifluoromethyl)phenoxy]pyridazin-4-yl]-5,6-dihydro-4H-1,2,4-oxadiazine]: the pest or weed control at 500 ppm in assay [1], in assay [2], in assay [3], in assay [4] and in assay [6] was 90 to 100% in each case. The inhibition at 20 ppm in assay [5] and in assay [7] was 90 to 100% throughout.
Take `COCCOc1c(Cl)nnc(Oc2cccc(C(F)(F)F)c2)c1C1=NOCC(Cc2ccc(C)cc2C)N1` (racemic) [I-072, rac-3-[6-chloro-5-(2-methoxyethoxy)-3-[3-(trifluoro-methyl)phenoxy]pyridazin-4-yl]-5-[(2,4-dimethylphenyl)methyl]-5,6-dihydro-4H-1,2,4-oxadiazine]: the pest or weed control at 500 ppm in assay [1] is 90 to 100%; in assay [2] it was 90 to 100%; in assay [3], 90 to 100%; in assay [4], 80 to 89%; in assay [6], 90 to 100%. The inhibition at 20 ppm in assay [5] fell in the range of 80 to 89%; in assay [7], 90 to 100%.
